Results taken from patent US9463174B2, “Pharmaceutical composition for the treatment of type-1 diabetes” (priority 2008, dated 2016).

System: STC-1 cells
Assay: GLP-1 production and secretion in gut-derived cells (GLP-1 RIA)
Type: cell-based
Experimental: In these in vitro assays using GLP-1-secreting and/or insulin-secreting cells, it was shown that the production and secretion of GLP-1 in the gut-derived cells (STC-1) were modulated by GABA, and the production and release of GABA from the beta-cells were also modulated by GLP-1. The specificity of these assays was determined by including the GABAAR antagonists or GLP-1 receptor antagonist in the assays.
Effects of GABA on stimulation of GLP-1 secretion from gut-derived cell lines. The production and secretion of GLP-1 in the gut-derived cells (STC-1) are examined by GLP-1 RIA. The time and dose dependent effects of GABA on GLP-1 production and secretion are examined in the gut cell lines in the presence of various concentration of GABA in which the specificity is determined by including the GABAAR antagonists in the assay.

NCCCC(=O)O [GABA, gamma-aminobutyric acid]
production and secretion of GLP-1 in gut-derived cells (STC-1): modulated
